Assay results as given in ChEMBL document CHEMBL1201862, “PubChem BioAssay data set” (2004).
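Growth conditions: 96-well plates. Treatment: test compound, 48 hours, 5 concentrations. Analysis: linear interpolation between bracketing concentrations; unreached endpoints set to highest concentration. GI50 = concentration required for 50% inhibition of growth.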 The source made the active and inactive calls. Rule as the data show it: active = GI50 up to about 1.1 µM and inactive = higher.

Experiments:
Test in all cases: NCI tumour cell line growth inhibition, 48 h
786-0 = test system: 786-0
A498 = test system: A498
A549 = test system: A549
ACHN = test system: ACHN
CAKI-1 = test system: CAKI-1
CCRF-CEM = test system: CCRF-CEM
COLO 205 = test system: COLO 205
DU-145 = test system: DU-145
HCC 2998 = test system: HCC 2998
HCT-116 = test system: HCT-116
HCT-15 = test system: HCT-15
HL-60 = test system: HL-60
HOP-62 = test system: HOP-62
HOP-92 = test system: HOP-92
HT-29 = test system: HT-29
Hs-578T = test system: Hs-578T
K562 = test system: K562
KM12 = test system: KM12
LOX IMVI = test system: LOX IMVI
M14 = test system: M14
MCF7 = test system: MCF7
MDA-MB-231 = test system: MDA-MB-231
MDA-MB-435 = test system: MDA-MB-435
MOLT-4 = test system: MOLT-4
NCI-H226 = test system: NCI-H226
NCI-H23 = test system: NCI-H23
NCI/ADR-RES = test system: NCI/ADR-RES
OVCAR-3 = test system: OVCAR-3
OVCAR-4 = test system: OVCAR-4
OVCAR-5 = test system: OVCAR-5
OVCAR-8 = test system: OVCAR-8
PC-3 = test system: PC-3
RPMI-8226 = test system: RPMI-8226
RXF 393 = test system: RXF 393
SF-268 = test system: SF-268
SF-295 = test system: SF-295
SF-539 = test system: SF-539
SK-MEL-28 = test system: SK-MEL-28
SK-MEL-2 = test system: SK-MEL-2
SK-OV-3 = test system: SK-OV-3
SN12C = test system: SN12C
SNB-19 = test system: SNB-19
SNB-75 = test system: SNB-75
SR = test system: SR
SW-620 = test system: SW-620
T47D = test system: T47D
TK-10 = test system: TK-10
U-251 = test system: U-251
UACC-257 = test system: UACC-257
UACC-62 = test system: UACC-62
UO-31 = test system: UO-31

## COc1cc2c(c(OC)c1OC)C(=O)[C@H]1OC(=O)N[C@@H]21
786-0
  GI50: > 100 µM (inactive)
A498
  GI50: > 100 µM (inactive)
A549
  GI50: > 100 µM (inactive)
ACHN
  GI50: > 100 µM (inactive)
CAKI-1
  GI50: > 100 µM (inactive)
CCRF-CEM
  GI50: > 100 µM (inactive)
COLO 205
  GI50: > 100 µM (inactive)
DU-145
  GI50: > 100 µM (inactive)
HCC 2998
  GI50: > 100 µM (inactive)
HCT-116
  GI50: > 100 µM (inactive)
HCT-15
  GI50: > 100 µM
HL-60
  GI50: > 100 µM (inactive)
HOP-62
  GI50: > 100 µM (inactive)
HOP-92
  GI50: > 100 µM (inactive)
HT-29
  GI50: > 100 µM (inactive)
Hs-578T
  GI50: > 100 µM (inactive)
K562
  GI50: > 100 µM (inactive)
KM12
  GI50: > 100 µM (inactive)
LOX IMVI
  GI50: > 100 µM (inactive)
M14
  GI50: > 100 µM (inactive)
MCF7
  GI50: > 100 µM (inactive)
MDA-MB-231
  GI50: > 100 µM (inactive)
MDA-MB-435
  GI50: > 100 µM (inactive)
MOLT-4
  GI50: > 100 µM (inactive)
NCI-H226
  GI50: > 100 µM (inactive)
NCI-H23
  GI50: > 100 µM (inactive)
NCI/ADR-RES
  GI50: > 100 µM (inactive)
OVCAR-3
  GI50: > 100 µM (inactive)
OVCAR-4
  GI50: > 100 µM (inactive)
OVCAR-5
  GI50: > 100 µM (inactive)
OVCAR-8
  GI50: > 100 µM (inactive)
PC-3
  GI50: > 100 µM (inactive)
RPMI-8226
  GI50: > 100 µM (inactive)
RXF 393
  GI50: > 100 µM (inactive)
SF-268
  GI50: > 100 µM (inactive)
SF-295
  GI50: > 100 µM (inactive)
SF-539
  GI50: > 100 µM (inactive)
SK-MEL-28
  GI50: > 100 µM (inactive)
SK-MEL-2
  GI50: > 100 µM (inactive)
SK-OV-3
  GI50: > 100 µM (inactive)
SN12C
  GI50: > 100 µM (inactive)
SNB-19
  GI50: > 100 µM (inactive)
SNB-75
  GI50: > 100 µM (inactive)
SR
  GI50: > 100 µM (inactive)
SW-620
  GI50: > 100 µM (inactive)
T47D
  GI50: > 100 µM (inactive)
TK-10
  GI50: > 100 µM (inactive)
U-251
  GI50: > 100 µM (inactive)
UACC-257
  GI50: > 100 µM (inactive)
UACC-62
  GI50: > 100 µM (inactive)
UO-31
  GI50: > 100 µM (inactive)
